Here are results for 14 molecules from US12678451B2, “Cannabinoid and omega fatty acid compositions and methods of using” (GreenWay Herbal Products, LLC, priority 2019, dated 2026).

The nature of one assay: DPPH antioxidant assay. The assay is classed as biochemical. The method, then: The ability of the cannabinoids to act as potential antioxidants was assessed using the 2,2-diphenyl-1-picrylhydrazyl (DPPH) antioxidant assay. The cannabinoids CBDA, CBD, CBDVA, CBDV, CBG, THCV, and the 1:1 CBD:CBDA mixture had the highest antioxidant activities with radical scavenging activities of 38.19%, 48.00%, 43.81%, 44.21%, 44.28%, 45.71%, and 43.74%, respectively.
The 2,2-diphenyl-1-picrylhydrazyl (DPPH) free radical (Alfa Aesar) was prepared at 0.1 mM in ethanol. The cannabinoids were tested at a final concentration of 100 uM. 2 uL of 7.5 mM stock solutions of the cannabinoids to be tested in DMSO were added to 148 uL of 0.1 mM DPPH to achieve a final concentration of 100 μM in the assay. Ascorbic acid (Thermo Scientific) at a final concentration of 10 mg/ml was used as a positive control. The reaction mixture was incubated in the dark at room temperature for 1 hour, the absorbance of the mixture was read at 517 nm using a Spectra Max 5M microplate reader (Molecular Devices, LLC, Sunnyvale, Calif., USA) and the absorbance was converted to percent radical scavenging activity (% RSA) using the following formula: % RSA=[(Absorbance of the control−Absorbance of the sample)/(Absorbance of the control)]×100.
Free radical production occurs when the immune system is activated and antioxidants represent potential effective treatments for inflammatory conditions and autoimmune diseases. […] The DPPH antioxidant assay can be used to measure the ability of a compound to scavenge free radicals by measuring the ability of compounds to hydrogenate and reduce DPPH. The DPPH assay was conducted on CBCA, CBDA, CBDVA, CBGA, CBLA, CBNA, THCVA, and their decarboxylated derivatives as well as the 1:1 CBD:CBDA mixture.

Assay [1] concerns differentiated U-937 cells. Kind of assay: Human cellular U-937 autophagy induction assay (anti-LC3). The assay is classed as cell-based. Particulars: for activation at 1 µM: Homo sapiens, U-937, 12 h, read-out: Induction of autophagy with respect to the untreated control. As for the experimental part:
The induction of autophagy was monitored using anti-LC3 antibodies to detect LC3 on the autophagosome in human U-937 pro-monocytic histiocytic lymphoma cells (ATCC, Manassas, Va., USA), which generate morphologies characteristic of macrophages upon induction by various stimuli. U-937 cells were cultured in RPMI-1640 medium with L-glutamine and sodium bicarbonate (Sigma-Aldrich, St Louis, Mo.) supplemented with 10% fetal bovine serum (FBS) and 1% penicillin in 25 cm2 tissue flasks at 37° C. in a 5% CO2 humidified atmosphere and passaged every 2-3 days. U-937 cells were seeded in 96 well plates at 5×10^5 cells/mL and stimulated with 100 ng/mL PMA to induce differentiation for 24 hours. The cells were then treated with the various cannabinoids at 1.0 μM concentrations for 12 hours. 30 μM chloroquine was used as a positive control. After treatment, the cells were fixed using 3.7% formaldehyde in PBS for 15 minutes at room temperature and washed with PBS to remove the fixative. Permeabilization reagent (0.2% Triton X-100 in PBS) (Sigma-Aldrich) was added, the cells were incubated for 15 minutes at room temperature and then the cells were washed with PBS to remove the permeabilization reagent. LC3B rabbit polyclonal antibody (Invitrogen) was added at a final concentration of 0.5 μg/ml for 1 hour at room temperature and the cells were washed with PBS remove the primary antibody. Secondary conjugated goat anti-rabbit polyclonal antibody (Thermo Scientific) was then added at a final concentration of 2.0 μg/ml for 1 hour at room temperature. The cells were washed, Hoechst dye was added to stain the nucleus and the cells were imaged using an Arrayscan VTI high-content screening (HCS) reader (Thermo Scientific) with the appropriate filters and the data was analyzed using the vHCS Scan software.
Chloroquine at a concentration of 30 μM was included as a positive control. The ability to induce autophagy was determined as a percentage with respect to the untreated control.

Assay [2] concerns cytokine levels in differentiated THP-1 cells treated with LPS. Kind of assay: THP-1 human cellular LPS cytokine assay, three independent experiments, total averaged suppression. Particulars: for inhibition at 2 µM: Homo sapiens, THP-1, 4 h, read-out: % Cytokine Suppression (total averaged).

SMILES strings stand for the structures.

As for `O=C1O[C@H]([C@@H](O)CO)C(O)=C1O` [Ascorbic acid, reference compound], in “DPPH antioxidant assay” (10 mg/ml, positive control), the “% RSA (radical scavenging activity)” value worked out at 94.00%.

As for `CCCCCc1cc(O)c2c(c1)OC(C)(CCC=C(C)C)C=C2` (centres unmarked) [CBC, 2-Methyl-2-(4-methyl-3-penten-1-yl)-7-pentyl-2H-chromen-5-ol], the “% RSA (radical scavenging activity)” value in the assay “DPPH antioxidant assay” (100 μM, 1 hour) was found to be 31.95%. Moreover, the “Fluorescence (LC3)” value in assay [1] (1.0 μM, 12 hours) was 47.84. Also, the activation at 1 µM in assay [1] was -0.85%. Besides, the inhibition at 2 µM in assay [2] was 22.6%.

For `CCCCCc1cc2c(c(O)c1C(=O)O)C=CC(C)(CCC=C(C)C)O2` (centres unmarked) [CBCA, 5-Hydroxy-2-methyl-2-(4-methyl-3-penten-1-yl)-7-pentyl-2H-chromene-6-carboxylic acid], in the assay “DPPH antioxidant assay” (100 μM, 1 hour), the “% RSA (radical scavenging activity)” value was determined as 19.02%. Besides, the “Fluorescence (LC3)” value in assay [1] (1.0 μM, 12 hours) is 42.61. The activation at 1 µM in assay [1] was -11.7%. Moreover, in assay [2], the “effectiveness at reducing elevated cytokine levels relative to dexamethasone” value is “at least half as effective as dexamethasone” and the inhibition at 2 µM was found to be 34.6%.

For the molecule `C=C(C)C1CCC(C)=CC1c1c(O)cc(CCC)cc1O` (centres unmarked) [CBDV, 2-(6-Isopropenyl-3-methyl-2-cyclohexen-1-yl)-5-propyl-1,3-benzenediol], in “DPPH antioxidant assay” (100 μM), the “radical scavenging activity compared to the untreated control” value is given as “at least two-fold”. Further, the “% RSA (radical scavenging activity)” value in the assay “DPPH antioxidant assay” (100 μM, 1 hour) amounted to 44.21%. In assay [1] (1.0 μM, 12 hours), the “Fluorescence (LC3)” value stood at 38.19. In assay [1], the activation at 1 µM was -20.9%. In assay [2], the “effectiveness at reducing elevated cytokine levels relative to dexamethasone” value is listed as “at least half as effective as dexamethasone” and the inhibition at 2 µM amounted to 36.7%.

With `C=C(C)[C@@H]1CCC(C)=C[C@H]1c1c(O)cc(CCC)c(C(=O)O)c1O` [CBDVA, 2,4-Dihydroxy-3-[(1R,6R)-6-isopropenyl-3-methyl-2-cyclohexen-1-yl]-6-propylbenzoic acid], the “radical scavenging activity compared to the untreated control” value in “DPPH antioxidant assay” (100 μM) is recorded as “at least two-fold”. The “% RSA (radical scavenging activity)” value in “DPPH antioxidant assay” (100 μM, 1 hour) amounted to 43.81%. Besides, in assay [1] (1.0 μM, 12 hours), the “Fluorescence (LC3)” value amounted to 39.29. The activation at 1 µM in assay [1] was -18.6%. In addition, in assay [2], the “effectiveness at reducing elevated cytokine levels relative to dexamethasone” value is reported as “at least half as effective as dexamethasone” and the inhibition at 2 µM is 32.4%.

In the case of `CCCCCc1cc(O)c(C/C=C(\C)CCC=C(C)C)c(O)c1` [CBG, 2-[(2E)-3,7-Dimethyl-2,6-octadien-1-yl]-5-pentyl-1,3-benzenediol], the “radical scavenging activity compared to the untreated control” value in the assay “DPPH antioxidant assay” (100 μM) is recorded as “at least two-fold”. Also, in the assay “DPPH antioxidant assay” (100 μM, 1 hour), the “% RSA (radical scavenging activity)” value is 44.28%. The “Fluorescence (LC3)” value in assay [1] (1.0 μM, 12 hours) came to 37.35. The activation at 1 µM in assay [1] is -22.6%. Also, in assay [2], the “effectiveness at reducing elevated cytokine levels relative to dexamethasone” value is “at least half as effective as dexamethasone” and the inhibition at 2 µM came out at 35.8%.

Regarding `CCCCCc1cc(O)c(C/C=C(\C)CCC=C(C)C)c(O)c1C(=O)O` [CBGA, 3-[(2E)-3,7-Dimethyl-2,6-octadien-1-yl]-2,4-dihydroxy-6-pentylbenzoic acid], in the assay “DPPH antioxidant assay” (100 μM, 1 hour), the “% RSA (radical scavenging activity)” value came to 26.84%. Moreover, the “Fluorescence (LC3)” value in assay [1] (1.0 μM, 12 hours) came out at 37.47. The activation at 1 µM in assay [1] is -22.3%. For the same molecule, in assay [2], the “effectiveness at reducing elevated cytokine levels relative to dexamethasone” value is reported as “at least half as effective as dexamethasone” and the inhibition at 2 µM came to 34.3%.

As for `CCCCCc1cc(O)c2c(c1)OC1(C)CCC3C1C2C3(C)C` (centres unmarked) [CBL, 1,1,3a-Trimethyl-6-pentyl-1a,2,3,3a,8b,8c-hexahydro-1H-4-oxabenzo[f]cyclobuta[cd]inden-8-ol], the “% RSA (radical scavenging activity)” value in “DPPH antioxidant assay” (100 μM, 1 hour) came to 30.84%. Also, the “Fluorescence (LC3)” value in assay [1] (1.0 μM, 12 hours) stood at 76.86. For the same molecule, the activation at 1 µM in assay [1] stood at 59.3%. In addition, in assay [2], the “effectiveness at reducing elevated cytokine levels relative to dexamethasone” value is “at least half as effective as dexamethasone” and the inhibition at 2 µM is 43.6%.

For the molecule `CCCCCc1cc2c(c(O)c1C(=O)O)[C@@H]1[C@H]3[C@H](CC[C@@]3(C)O2)C1(C)C` [CBLA, (1aS,3aR,8bR,8cR)-8-Hydroxy-1,1,3a-trimethyl-6-pentyl-1a,2,3,3a,8b,8c-hexahydro-1H-4-oxabenzo[f]cyclobuta[cd]indene-7-carboxylic acid], the “% RSA (radical scavenging activity)” value in the assay “DPPH antioxidant assay” (100 μM, 1 hour) is listed as 21.18%. Moreover, the “Fluorescence (LC3)” value in assay [1] (1.0 μM, 12 hours) was determined as 72.27. Further, in assay [1], the activation at 1 µM was 49.8%. Also, in assay [2], the “effectiveness at reducing elevated cytokine levels relative to dexamethasone” value was “at least half as effective as dexamethasone” and the inhibition at 2 µM was 34.4%.

As for `CCCCCc1cc(O)c2c(c1)OC(C)(C)c1ccc(C)cc1-2` [CBN, 6,6,9-Trimethyl-3-pentyl-6H-benzo[c]chromen-1-ol], in “DPPH antioxidant assay” (100 μM, 1 hour), the “% RSA (radical scavenging activity)” value came to 33.83%. In addition, the “Fluorescence (LC3)” value in assay [1] (1.0 μM, 12 hours) was determined as 40.80. Further, in assay [1], the activation at 1 µM is -15.4%. Moreover, in assay [2], the “effectiveness at reducing elevated cytokine levels relative to dexamethasone” value is listed as “at least half as effective as dexamethasone” and the inhibition at 2 µM was determined as 37%.

In the case of `CCCCCc1cc2c(c(O)c1C(=O)O)-c1cc(C)ccc1C(C)(C)O2` [CBNA, 1-Hydroxy-6,6,9-trimethyl-3-pentyl-6H-benzo[c]chromene-2-carboxylic acid], the “% RSA (radical scavenging activity)” value in the assay “DPPH antioxidant assay” (100 μM, 1 hour) was determined as 24.92%. Further, the “Fluorescence (LC3)” value in assay [1] (1.0 μM, 12 hours) was 36.89. Further, the activation at 1 µM in assay [1] is -23.5%. In assay [2], the “effectiveness at reducing elevated cytokine levels relative to dexamethasone” value is recorded as “at least half as effective as dexamethasone” and the inhibition at 2 µM came to 34%.

`CCN(CC)CCCC(C)Nc1ccnc2cc(Cl)ccc12` (centres unmarked) [Chloroquine, chloroquine, reference compound]: the “Fluorescence (LC3)” value in assay [1] (30 uM, positive control) was found to be 111.20.

For the molecule `CCCc1cc(O)c2c(c1)OC(C)(C)[C@@H]1CCC(C)=C[C@@H]21` [THCV, (6aR,10aR)-6,6,9-trimethyl-3-propyl-6H,6aH,7H,8H,10aH-benzo[c]isochromen-1-ol], in “DPPH antioxidant assay” (100 μM), the “radical scavenging activity compared to the untreated control” value was “at least two-fold”. In the assay “DPPH antioxidant assay” (100 μM, 1 hour), the “% RSA (radical scavenging activity)” value came to 45.71%. In assay [1] (1.0 μM, 12 hours), the “Fluorescence (LC3)” value was 42.14. The activation at 1 µM in assay [1] is -12.7%. For the same molecule, in assay [2], the “effectiveness at reducing elevated cytokine levels relative to dexamethasone” value is given as “at least half as effective as dexamethasone” and the inhibition at 2 µM worked out at 34.8%.

`CCCc1cc2c(c(O)c1C(=O)O)[C@@H]1C=C(C)CC[C@H]1C(C)(C)O2` [THCVA, (6aR,10aR)-6a,7,8,10a-tetrahydro-1-hydroxy-6,6,9-trimethyl-3-propyl-6H-Dibenzo[b,d] pyran-2-carboxylic acid]: the “% RSA (radical scavenging activity)” value in the assay “DPPH antioxidant assay” (100 μM, 1 hour) turned out to be 29.22%. The “Fluorescence (LC3)” value in assay [1] (1.0 μM, 12 hours) came out at 66.45. Moreover, in assay [1], the activation at 1 µM was determined as 37.7%. Moreover, in assay [2], the “effectiveness at reducing elevated cytokine levels relative to dexamethasone” value is given as “at least half as effective as dexamethasone” and the inhibition at 2 µM worked out at 28.4%.
